Laboratory results published in patent publication US12077503B2, “Substituted cyclic amides and their use as herbicides” (FMC CORPORATION, priority 2015, dated 2024).

Experiments:
Assay type in all cases: in vivo
[1] = test system: giant foxtail (Setaria faberii); test: Test A preemergence; details: Setaria faberi, pre-emergence, 240 h, Preemergence
Method in brief: (§1)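 Preemergence directed soil spray on seeded pots, or postemergence application to plants 2–10 cm, one- to two-leaf. Solvent mixture non-phytotoxic, with surfactant. Scored ~10 d later, visually, 0–100 vs untreated.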

[2] = test system: barnyardgrass (Echinochloa crus-galli); test: Test A preemergence; details: Echinochloa crus-galli, pre-emergence, 240 h, Preemergence
Method in brief: as §1

[3] = test system: ryegrass, Italian (Italian ryegrass, Lolium multiflorum); test: Test A preemergence; details: Lolium multiflorum, pre-emergence, 240 h, Preemergence
Method in brief: as §1

[4] = test system: pigweed (Amaranthus retroflexus); test: Test A preemergence; details: Amaranthus retroflexus, pre-emergence, 240 h, Preemergence
Kochia (Kochia scoparia) [5] = test: Test A preemergence; details: Bassia scoparia, pre-emergence, 240 h, Preemergence
Method in brief: as §1

[6] = test system: ragweed (common ragweed, Ambrosia elatior); test: Test A preemergence; details: Ambrosia artemisiifolia, pre-emergence, 240 h, Preemergence
Method in brief: as §1

[7] = test system: giant foxtail (Setaria faberii); test: Test A postemergence; details: Setaria faberi, post-emergence, 240 h, Postemergence, read-out: Plant response rating, Foxtail, Giant
Method in brief: as §1

[8] = test system: barnyardgrass (Echinochloa crus-galli); test: Test A postemergence; details: Echinochloa crus-galli, post-emergence, 240 h, Postemergence, read-out: Plant response rating, Barnyardgrass
Method in brief: as §1

[9] = test system: Galium (catchweed bedstraw, Galium aparine); test: Test A postemergence; details: Galium, post-emergence, 240 h, Postemergence, read-out: Plant response rating, Galium
Method in brief: as §1

[10] = test system: ryegrass, Italian (Italian ryegrass, Lolium multiflorum); test: Test A postemergence; details: Lolium multiflorum, post-emergence, 240 h, Postemergence, read-out: Plant response rating, Ryegrass, Italian
Method in brief: as §1

[11] = test system: pigweed (Amaranthus retroflexus); test: Test A postemergence; details: Amaranthus retroflexus, post-emergence, 240 h, Postemergence, read-out: Plant response rating, Pigweed
Method in brief: as §1

[12] = test system: blackgrass (Alopecurus myosuroides); test: Test A postemergence; details: Alopecurus myosuroides, post-emergence, 240 h, Postemergence, read-out: Plant response rating, Blackgrass
Method in brief: as §1

[13] = test system: wheat (Triticum aestivum); test: Test A postemergence; details: Triticum aestivum, post-emergence, 240 h, Postemergence, read-out: Plant response rating, Wheat
Method in brief: as §1

Kochia (Kochia scoparia) [14] = test: Test A postemergence; details: Bassia scoparia, post-emergence, 240 h, Postemergence, read-out: Plant response rating, Kochia
Method in brief: as §1

[15] = test system: ragweed (common ragweed, Ambrosia elatior); test: Test A postemergence; details: Ambrosia artemisiifolia, post-emergence, 240 h, Postemergence, read-out: Plant response rating, Ragweed
Method in brief: as §1

corn (Zea mays) = test: Test A postemergence; details: Zea mays, post-emergence, 240 h, Postemergence
Method in brief: as §1

[16] = test system: ducksalad (Heteranthera limosa); test: Test B flooded paddy test; details: Heteranthera limosa, 250 g ai/ha, Flood; 0 to 100 scale where 0 is no effect and 100 is complete control; read-out: Ducksalad plant response rating
Method in brief: (§2)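 Plants at 2-leaf stage flooded to 3 cm above soil, with compounds applied directly to paddy water and that depth maintained. Plants kept in greenhouse 13–15 d. Visual rating versus controls on a 0 (no effect) to 100 (complete control) scale.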

[17] = test system: sedge, umbrella (small-flower umbrella sedge, Cyperus difformis); test: Test B flooded paddy test; details: Cyperus difformis, 250 g ai/ha, Flood; 0 to 100 scale where 0 is no effect and 100 is complete control; read-out: Sedge, Umbrella plant response rating
Method in brief: as §2

[18] = test system: barnyardgrass (Echinochloa crus-galli); test: Test B flooded paddy test; details: Echinochloa crus-galli, 250 g ai/ha, Flood; 0 to 100 scale where 0 is no effect and 100 is complete control; read-out: Barnyardgrass plant response rating
Method in brief: as §2

rice (Oryra sativa) = test: Test B flooded paddy test; details: Oryza sativa, 250 g ai/ha, Flood; 0 to 100 scale where 0 is no effect and 100 is complete control; read-out: Rice plant response rating
Method in brief: as §2

[19] = 125 g ai/ha, visual injury after approximately 10 d, 0 to 100 scale where 0 is no effect and 100 is complete control
[20] = 31 g ai/ha, visual injury after approx. 10 d, 0 to 100 scale, 0 no effect, 100 complete control

CN1CC[C@H](c2ccccc2C(F)(F)F)[C@@H](C(=O)Nc2ccc(F)c(F)c2F)C1=O [Compound 1010]
0%: pest or weed control at 125 g/ha ([1]; 125 g ai/ha, visual injury rating after approximately 10 d, read-out: Foxtail, Giant plant response rating (0 to 100 scale, 0 is no effect, 100 is complete control)) | pest or weed control at 31 g/ha ([1]; 31 g ai/ha, 0 to 100 scale (0 no effect, 100 complete control), read-out: Plant response rating, Foxtail, Giant) | pest or weed control at 125 g/ha ([2]; 125 g ai/ha, visual injury rating after approximately 10 d, read-out: Barnyardgrass plant response rating (0 to 100 scale, 0 is no effect, 100 is complete control)) | pest or weed control at 31 g/ha ([2]; 31 g ai/ha, 0 to 100 scale (0 no effect, 100 complete control), read-out: Plant response rating, Barnyardgrass) | pest or weed control at 31 g/ha ([3]; 31 g ai/ha, 0 to 100 scale where 0 is no effect and 100 is complete control, read-out: Ryegrass, Italian plant response rating) | pest or weed control at 125 g/ha ([3]; 125 g ai/ha, visual injury rating after approximately 10 d, read-out: Ryegrass, Italian plant response rating (0 to 100 scale, 0 is no effect, 100 is complete control)) | pest or weed control at 31 g/ha ([4]; 31 g ai/ha, 0 to 100 scale where 0 is no effect and 100 is complete control, read-out: Pigweed plant response rating) | pest or weed control at 125 g/ha ([4]; 125 g ai/ha, visual injury rating after approximately 10 d, read-out: Pigweed plant response rating (0 to 100 scale, 0 is no effect, 100 is complete control)) | pest or weed control at 31 g/ha (Kochia (Kochia scoparia) [5]; 31 g ai/ha, 0 to 100 scale where 0 is no effect and 100 is complete control, read-out: Kochia plant response rating) | pest or weed control at 125 g/ha (Kochia (Kochia scoparia) [5]; 125 g ai/ha, visual injury rating after approximately 10 d, read-out: Kochia plant response rating (0 to 100 scale, 0 is no effect, 100 is complete control)) | pest or weed control at 31 g/ha ([6]; 31 g ai/ha, 0 to 100 scale where 0 is no effect and 100 is complete control, read-out: Ragweed plant response rating) | pest or weed control at 125 g/ha ([6]; 125 g ai/ha, visual injury rating after approximately 10 d, read-out: Ragweed plant response rating (0 to 100 scale, 0 is no effect, 100 is complete control)) | pest or weed control at 125 g/ha [7, 19] | pest or weed control at 31 g/ha [7, 20] | pest or weed control at 125 g/ha [8, 19] | pest or weed control at 31 g/ha [8, 20] | pest or weed control at 125 g/ha [9, 19] | pest or weed control at 31 g/ha [9, 20] | pest or weed control at 125 g/ha [10, 19] | pest or weed control at 31 g/ha [10, 20] | pest or weed control at 125 g/ha [11, 19] | pest or weed control at 31 g/ha [11, 20] | pest or weed control at 125 g/ha [12, 19] | pest or weed control at 31 g/ha [12, 20] | plant injury at 125 g/ha [13, 19] | plant injury at 31 g/ha [13, 20] | pest or weed control at 125 g/ha (Kochia (Kochia scoparia) [14]; [19]) | pest or weed control at 31 g/ha (Kochia (Kochia scoparia) [14]; [20]) | pest or weed control at 125 g/ha [15, 19] | pest or weed control at 31 g/ha [15, 20] | Corn plant response rating (crop injury, 0 = no effect, 100 = complete kill) at 125 g/ha (corn (Zea mays); [19]) | Corn plant response rating (crop injury, 0 = no effect, 100 = complete kill) at 31 g/ha (corn (Zea mays); [20]) | pest or weed control at 250 g/ha [16] | pest or weed control at 250 g/ha [17] | pest or weed control at 250 g/ha [18] | pest or weed control at 250 g/ha (rice (Oryra sativa))
